According to patent publication US10239843B2 (CANCER RESEARCH TECHNOLOGY LIMITED, priority 2014, dated 2019):

target: Human Full Length PARG (Homo sapiens (Human), UniProt Q86W56); assay: PARG enzyme assay (TR-FRET); format: biochemical; conditions: read-out: PARG Biochem IC50
Sequence (Q86W56 whole entry): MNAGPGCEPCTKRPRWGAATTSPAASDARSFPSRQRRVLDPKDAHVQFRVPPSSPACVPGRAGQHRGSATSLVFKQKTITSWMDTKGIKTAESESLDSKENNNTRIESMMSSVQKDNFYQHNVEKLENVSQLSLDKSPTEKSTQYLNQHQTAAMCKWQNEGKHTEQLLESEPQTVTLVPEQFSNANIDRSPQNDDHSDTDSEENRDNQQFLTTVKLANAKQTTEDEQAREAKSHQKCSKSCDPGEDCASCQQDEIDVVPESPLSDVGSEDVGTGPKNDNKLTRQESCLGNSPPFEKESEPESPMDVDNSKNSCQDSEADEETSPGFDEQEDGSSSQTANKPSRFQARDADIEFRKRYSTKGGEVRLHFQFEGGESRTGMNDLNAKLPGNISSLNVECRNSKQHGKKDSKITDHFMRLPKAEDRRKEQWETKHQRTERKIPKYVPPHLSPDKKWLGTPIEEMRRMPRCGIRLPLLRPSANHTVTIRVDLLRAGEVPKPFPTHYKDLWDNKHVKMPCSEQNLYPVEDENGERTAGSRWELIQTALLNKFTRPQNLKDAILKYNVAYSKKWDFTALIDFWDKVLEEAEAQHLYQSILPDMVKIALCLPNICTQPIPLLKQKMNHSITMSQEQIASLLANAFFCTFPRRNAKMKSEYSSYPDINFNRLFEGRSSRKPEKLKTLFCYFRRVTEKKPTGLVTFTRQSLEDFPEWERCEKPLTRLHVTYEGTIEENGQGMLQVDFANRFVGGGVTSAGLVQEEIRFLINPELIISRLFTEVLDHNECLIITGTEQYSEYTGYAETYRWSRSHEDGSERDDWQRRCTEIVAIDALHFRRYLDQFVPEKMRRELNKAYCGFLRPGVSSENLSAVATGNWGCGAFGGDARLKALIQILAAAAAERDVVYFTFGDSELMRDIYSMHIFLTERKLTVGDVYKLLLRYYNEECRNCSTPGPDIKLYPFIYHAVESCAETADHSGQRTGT

Compound	IC50 [nM]
CC1(NS(=O)(=O)c2cc3c4c(cccc4c2)C(=O)NC3=O)CC1 [Example 447, N-(1-Methylcyclopropyl)-1,3-dioxo-benzo[de]isoquinoline-5-sulfonamide]	3470
Cc1cc(Cn2c(=O)c3cc(S(=O)(=O)NC4(C)CC4)ccc3n(CC(C)(C)F)c2=O)on1 [Example 453, 1-(2-Fluoro-2-methyl-propyl)-N-(1-methylcyclopropyl)-3-[(3-methylisoxazol-5-yl)methyl]-2,4-dioxo-quinazoline-6-sulfonamide]	348
CC1(NS(=O)(=O)c2ccc3[nH]c(=O)n(CCc4ccccn4)c(=O)c3c2)CC1 [Example 495, N-(1-Methylcyclopropyl)-2,4-dioxo-3-[2-(2-pyridyl)ethyl]-1H-quinazoline-6-sulfonamide]	7070

Second part, the compound after the results:

IC50 [nM]	Compound
3920	Cn1c(=O)n(CCc2ccccn2)c(=O)c2cc(S(=O)(=O)NC3(C)CC3)ccc21 [Example 498, 1-Methyl-N-(1-methylcyclopropyl)-2,4-dioxo-3-[2-(2-pyridyl)ethyl]quinazoline-6-sulfonamide]
2460	Cn1cnnc1Cn1c(=O)c2cc(S(=O)(=O)NC3(C)CC3)ccc2n(C)c1=O [Example 499, 1-Methyl-N-(1-methylcyclopropyl)-3-[(4-methyl-1,2,4-triazol-3-yl)methyl]-2,4-dioxo-quinazoline-6-sulfonamide]
1610	Cn1c(=O)n(Cc2nnc(C(F)(F)F)o2)c(=O)c2cc(S(=O)(=O)NC3(C)CC3)ccc21 [Example 501, 1-Methyl-N-(1-methylcyclopropyl)-2,4-dioxo-3-[[5-(trifluoromethyl)-1,3,4-oxadiazol-2-yl]methyl]quinazoline-6-sulfonamide]
3790	Cn1c(=O)n(Cc2cnc[nH]2)c(=O)c2cc(S(=O)(=O)NC3(C)CC3)ccc21 [Example 505, 3-(1H-Imidazol-4-ylmethyl)-1-methyl-N-(1-methylcyclopropyl)-2,4-dioxo-quinazoline-6-sulfonamide]
4130	CC(C)n1cc(Cn2c(=O)c3cc(S(=O)(=O)NC4(C)CC4)ccc3n(C)c2=O)cn1 [Example 507, 3-[(1-Isopropylpyrazol-4-yl)methyl]-1-methyl-N-(1-methylcyclopropyl)-2,4-dioxo-quinazoline-6-sulfonamide]
2770	Cn1nnnc1Cn1c(=O)c2cc(S(=O)(=O)NC3(C)CC3)ccc2n(C)c1=O [Example 508, 1-Methyl-N-(1-methylcyclopropyl)-3-[(1-methyltetrazol-5-yl)methyl]-2,4-dioxo-quinazoline-6-sulfonamide]
7220	CC(C)c1nnsc1Cn1c(=O)c2cc(S(=O)(=O)NC3(C)CC3)ccc2n(C)c1=O [Example 509, 3-[(4-Isopropylthiadiazol-5-yl)methyl]-1-methyl-N-(1-methylcyclopropyl)-2,4-dioxo-quinazoline-6-sulfonamide]
2290	Cn1c(=O)n(Cc2ccns2)c(=O)c2cc(S(=O)(=O)NC3(C)CC3)ccc21 [Example 510, 3-(Isothiazol-5-ylmethyl)-1-methyl-N-(1-methylcyclopropyl)-2,4-dioxo-quinazoline-6-sulfonamide]
2060	Cc1nonc1Cn1c(=O)c2cc(S(=O)(=O)NC3(C)CC3)ccc2n(C)c1=O [Example 511, 1-Methyl-N-(1-methylcyclopropyl)-3-[(4-methyl-1,2,5-oxadiazol-3-yl)methyl]-2,4-dioxo-quinazoline-6-sulfonamide]
2950	Cn1c(=O)[nH]c(=O)c2cc(S(=O)(=O)NC3(CF)CC3)ccc21 [Example 512, N-[1-(Fluoromethyl)cyclopropyl]-1-methyl-2,4-dioxo-quinazoline-6-sulfonamide]
208	COCCn1c(=O)n(Cc2cc(C)no2)c(=O)c2cc(S(=O)(=O)NC3(CF)CC3)ccc21 [Example 527, N-[1-(Fluoromethyl)cyclopropyl]-1-(2-methoxyethyl)-3-[(3-methylisoxazol-5-yl)methyl]-2,4-dioxo-quinazoline-6-sulfonamide]
1740	Cn1c(=O)n(CC(=O)c2ccncc2)c(=O)c2cc(S(=O)(=O)NC3(C)CC3)ccc21 [Example 528, 1-Methyl-N-(1-methylcyclopropyl)-2,4-dioxo-3-[2-oxo-2-(4-pyridyl)ethyl]quinazoline-6-sulfonamide]
1050	Cn1c(=O)n(CC(=O)c2cccs2)c(=O)c2cc(S(=O)(=O)NC3(C)CC3)ccc21 [Example 529, 1-Methyl-N-(1-methylcyclopropyl)-2,4-dioxo-3-[2-oxo-2-(2-thienyl)ethyl]quinazoline-6-sulfonamide]
1610	Cn1c(=O)n(CC(=O)c2ccccc2)c(=O)c2cc(S(=O)(=O)NC3(C)CC3)ccc21 [Example 530, 1-Methyl-N-(1-methylcyclopropyl)-2,4-dioxo-3-phenacyl-quinazoline-6-sulfonamide]
3270	Cn1c(=O)n(CC(=O)c2ccc(C#N)cc2)c(=O)c2cc(S(=O)(=O)NC3(C)CC3)ccc21 [Example 531, 3-[2-(4-Cyanophenyl)-2-oxo-ethyl]-1-methyl-N-(1-methylcyclopropyl)-2,4-dioxo-quinazoline-6-sulfonamide]
578	Cn1c(=O)n(Cc2cncs2)c(=O)c2cc(S(=O)(=O)NC3(CF)CC3)ccc21 [Example 534, N-[1-(Fluoromethyl)cyclopropyl]-1-methyl-2,4-dioxo-3-(thiazol-5-ylmethyl)quinazoline-6-sulfonamide]

same assay, conditions: read-out: PARG Biochem IC50 Geomean

IC50 [nM]	Compound
246	CC1CC1Cn1c(=O)n(C)c(=O)c2cc(S(=O)(=O)NC3(C)CC3)ccc21 (stereo not drawn) [Example 35]
454	COc1ccc(Cn2c(=O)n(C)c(=O)c3cc(S(=O)(=O)NC4(C)CC4)ccc32)cc1 [Example 61]
8630	Cc1cc(Cn2nc(C(=O)N(C)C)c3ccc(S(=O)(=O)NC4(C)CC4)cc3c2=O)on1 [Example 326]
795	Cc1cc(Cn2nc(C(=O)NCC3CCOCC3)c3ccc(S(=O)(=O)NC4(C)CC4)cc3c2=O)on1 [Example 331]
781	Cc1cc(Cn2nc(C(=O)NCC3CCN(C)CC3)c3ccc(S(=O)(=O)NC4(C)CC4)cc3c2=O)on1 [Example 333]
4220	Cn1cc(Cn2c(=O)c3cc(S(=O)(=O)NC4(C)CC4)ccc3n(CCN3CCCC3=O)c2=O)cn1 [Example 334]
1050	CCOC(=O)C(F)n1c(=O)n(Cc2cc(C)no2)c(=O)c2cc(S(=O)(=O)NC3(C)CC3)ccc21 (stereo not drawn) [Example 335]
523	Cc1cc(Cn2c(=O)c3cc(S(=O)(=O)NC4(C)CC4)ccc3n(CC(C)O)c2=O)on1 (stereo not drawn) [Example 338]
511	Cc1cc(Cn2c(=O)c3cc(S(=O)(=O)NC4(C)CC4)ccc3n(CCN3CCN(C)CC3)c2=O)on1 [Example 341]

tested on: PARG in HeLa cell line; assay: PARG cell assay (PAR chain immunofluorescence after MMS); format: cell-based; conditions: HeLa cells, MMS treatment; read-out: PARG Cell IC50
Experimental: This method is based on the detection of endogenous levels of poly (ADP) ribose chains present in the nucleus of HeLa cell line using indirect immunofluorescence. MMS stimulation increases PAR chains for up to 25 mins. After that point, PARG is active and breaks down the PAR chains, until by one hour after stimulation no PAR chains are detectable. Inhibition of PARG maintains PAR chains.
Briefly, following compound treatment and treatment with the DNA damaging agent methylmethanesulfonate (MMS), the cell monolayer is fixed, then permeabilised and incubated with a mouse monoclonal antibody raised against multimers of poly(ADP) ribose.
At the end of the 1 h dosing period, MMS was added to duplicates at a final concentration of 50 μg/mL, for a further hour.
Media was tipped off and the cells fixed with 50 μL ice-cold 95% MetOH/PBS for 15 mins at −20° C. Following a PBS wash, 50 μL PBS/0.1% Triton was added to the cells for 20 mins. Following another PBS wash, anti-PAR antibody (Calbiochem AM80) was diluted 1:4000 in a buffer (PBS+0.5% FBS+0.05% Tween20) and added to the cells and incubated overnight at 4° C.
Cells were washed three times with PBS and the plate sealed with a light-proof seal.

IC50 [nM]	Compound
70	1-[(2,5-Dimethylpyrazol-3-yl)methyl]-3-[(1-methylpyrazol-4-yl)methyl]-2,4-dioxo-N-[1-(trideuteriomethyl)cyclopropyl]quinazoline-6-sulfonamide [Example 490]

same assay, conditions: Homo sapiens; HeLa cells, MMS 50 μg/mL; read-out: PARG Cell IC50 Geomean

IC50 [nM]	Compound
519	Cn1c(=O)c2cc(S(=O)(=O)NC3(C)CC3)ccc2n(CC2CC2)c1=O [Example 23]
409	CC1CC1Cn1c(=O)n(C)c(=O)c2cc(S(=O)(=O)NC3(C)CC3)ccc21 (stereo not drawn) [Example 35]
591	Cn1c(=O)c2cc(S(=O)(=O)NC3(C)CC3)ccc2n(CC2CC2(F)F)c1=O (stereo not drawn) [Example 36]
199	COc1ccc(Cn2c(=O)n(C)c(=O)c3cc(S(=O)(=O)NC4(C)CC4)ccc32)cc1 [Example 61]
608	CCC#CCn1c(=O)n(C)c(=O)c2cc(S(=O)(=O)NC3(C)CC3)ccc21 [Example 137]
56	Cn1cc(Cn2c(=O)c3cc(S(=O)(=O)NC4(C)CC4)ccc3n(CC3CC3)c2=O)cn1 [Example 174]
608	Cc1cc(Cn2c(=O)c3cc(S(=O)(=O)NC4(C)CC4)ccc3n(CC3CC(C)(C)O3)c2=O)on1 (stereo not drawn) [Example 352]
218	Cn1cc(Cn2c(=O)c3cc(S(=O)(=O)NC4(C)CC4)ccc3n(CC3CN(C(=O)OC(C)(C)C)C3)c2=O)cn1 [Example 365]

same assay, conditions: Homo sapiens; HeLa cells, MMS treatment; read-out: PARG Cell IC50

Compound	IC50 [nM]
Cc1cc2cc(S(=O)(=O)NC3(C)CC3)ccc2n(CC2CC2)c1=O [Example 426, 1-(Cyclopropylmethyl)-3-methyl-N-(1-methylcyclopropyl)-2-oxo-quinoline-6-sulfonamide]	1400
Cn1cc(Cn2c(=O)[nH]c3ccc(S(=O)(=O)NC4(C)CC4)cc3c2=O)cn1 [Example 430, N-(1-Methylcyclopropyl)-3-[(1-methylpyrazol-4-yl)methyl]-2,4-dioxo-1H-quinazoline-6-sulfonamide]	1080

Continued, values first:

IC50 [nM]	Compound
534	Cn1c(=O)n(Cc2ccno2)c(=O)c2cc(S(=O)(=O)NC3(CF)CC3)ccc21 [Example 513, N-[1-(Fluoromethyl)cyclopropyl]-3-(isoxazol-5-ylmethyl)-1-methyl-2,4-dioxo-quinazoline-6-sulfonamide]
133	Cc1cc(Cn2c(=O)c3cc(S(=O)(=O)NC4(CF)CC4)ccc3n(CCF)c2=O)on1 [Example 526, 1-(2-Fluoroethyl)-N-[1-(fluoromethyl)cyclopropyl]-3-[(3-methylisoxazol-5-yl)methyl]-2,4-dioxo-quinazoline-6-sulfonamide]
496	Cc1cc(Cn2c(=O)n(Cc3nnc(C)s3)c(=O)c3cc(S(=O)(=O)NC4(CF)CC4)ccc32)n(C)n1 [Example 603, 1-[(2,5-Dimethylpyrazol-3-yl)methyl]-N-[1-(fluoromethyl)cyclopropyl]-3-[(5-methyl-1,3,4-thiadiazol-2-yl)methyl]-2,4-dioxo-quinazoline-6-sulfonamide]
